pIC50: −log10 of the molar value.

The results in this text go back to patent US20060069084A1, “Methods of inhibiting kinases” (priority 2001, published 2006).

What all share (format): biochemical
What all share (settings): inhibit 50% of activity at 50 μM

Assay [1] has as its target T1, JAK1 (Homo sapiens, UniProt P23458).
T1 construct: The kinase domain of humanJAK1 was amplified from U937mRNA; His tag (from pFastBac HTb vector; nickel chelate purification) (N); made in house; host or cells: baculovirus; virus made in Sf9, large-scale expression in High Five insect cells
Kind of assay: JAK1 kinase domain capture-based ELISA kinase assay. How it is done: (§1) For screening purposes, compounds were diluted in 96 well plates at a concentration of 50 μM or 20 μM. Plates were warmed at 37° C. for 30 minutes before assay.
The kinase domain of humanJAK1 was amplified from U937mRNA using the polymerase chain reaction with the following primers: […]
JAK1 PCR products were cloned into the pFastBac HTb expression vector (Gibco) via the Xho I and Kpn I sites. The JAK1 plasmid was then transformed into competent DH10Bac cells (Gibco), and the recombinant baculovirus produced prepared for transfection into Sf9 insect cells.
(§2) Baculovirus preparations from each of the JAK family members were infected into five litres of High Five cells (Invitrogen) grown in High Five serum free medium (Invitrogen) to a cell density of approximately 1-2×10^6 cells/ml. Cells are infected with virus at a MOI of 0.8-3.0. Cells were harvested and lysed. JAK kinase domains were purified by affinity chromatography on a Probond (Invitrogen) nickel chelate affinity column.
(§3) The biotinylated substrate biotin-EGPWLEEEEEAYGWMDF-NH2 (SEQ ID NO:9) (final concentration 5 μM) was used as substrate, and tyrosine phosphorylation was quantitated following transfer to an avidin coated ELISA plate using peroxidase-linked anti-phospho-tyrosine antibody PY20.
(§4) Inhibitors were added to the assays fifteen minutes prior to the addition of ATP. Inhibitors were added in aqueous DMSO, with DMSO concentrations never exceeding 1%.

In assay [2] the target is T2, JAK2 (Homo sapiens, UniProt O60674).
T2 construct: The kinase domain of humanJAK2 was amplified from U937mRNA; His tag (from pFastBac HTc vector; nickel chelate purification) (N); made in house; host or cells: baculovirus; virus made in Sf9, large-scale expression in High Five insect cells
T2 sequence (O60674 849-1124 limits assumed): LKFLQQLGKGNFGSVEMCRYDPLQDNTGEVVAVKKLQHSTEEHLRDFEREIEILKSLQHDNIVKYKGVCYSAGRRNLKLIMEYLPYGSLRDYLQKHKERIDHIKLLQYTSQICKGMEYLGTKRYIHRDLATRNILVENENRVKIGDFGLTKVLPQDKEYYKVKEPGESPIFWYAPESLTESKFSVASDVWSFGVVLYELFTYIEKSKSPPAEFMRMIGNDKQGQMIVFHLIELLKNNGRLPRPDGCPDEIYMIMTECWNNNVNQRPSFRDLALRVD
Nature of the assay: JAK2 kinase domain capture-based ELISA kinase assay. The method, then: as §1
The kinase domain of humanJAK2 was amplified from U937mRNA using the polymerase chain reaction with the following primers: […]
JAK2 PCR products were cloned into the pFastBac HTc expression vector (Gibco) via the Sal I and Not I sites. The JAK2 plasmid was then transformed into competent DH10Bac cells (Gibco), and the recombinant baculovirus produced prepared for transfection into Sf9 insect cells.
as §2, §3, §4
(In general: In an ELISA, binding on a coated surface is turned into a signal by an enzyme label.)

Assay [3] concerns the target T3, JAK3 (Homo sapiens, UniProt P52333).
T3 construct: The kinase domain of humanJAK3 was amplified from U937mRNA; His tag (from pFastBac HTb vector; nickel chelate purification) (N); made in house; host or cells: baculovirus; virus made in Sf9, large-scale expression in High Five insect cells
Nature of the assay: JAK3 kinase domain capture-based ELISA kinase assay. How it is done: as §1
The kinase domain of humanJAK3 was amplified from U937mRNA using the polymerase chain reaction with the following primers: […]
JAK3 PCR products were cloned into the pFastBac HTb expression vector (Gibco) via the Xho I and Kpn I sites. The JAK3 plasmid was then transformed into competent DH10Bac cells (Gibco), and the recombinant baculovirus produced prepared for transfection into Sf9 insect cells.
as §2, §3, §4

For assay [4], the target named is T4, TYK2 (Homo sapiens, UniProt P29597).
T4 construct: The kinase domain of humanTYK2 was amplified from A549 mRNA; His tag (from pBlueBacHis2A vector; nickel chelate purification) (N); made in house; host or cells: baculovirus; virus made in Sf9, large-scale expression in High Five insect cells
T4 sequence (P29597 897-1176 limits assumed): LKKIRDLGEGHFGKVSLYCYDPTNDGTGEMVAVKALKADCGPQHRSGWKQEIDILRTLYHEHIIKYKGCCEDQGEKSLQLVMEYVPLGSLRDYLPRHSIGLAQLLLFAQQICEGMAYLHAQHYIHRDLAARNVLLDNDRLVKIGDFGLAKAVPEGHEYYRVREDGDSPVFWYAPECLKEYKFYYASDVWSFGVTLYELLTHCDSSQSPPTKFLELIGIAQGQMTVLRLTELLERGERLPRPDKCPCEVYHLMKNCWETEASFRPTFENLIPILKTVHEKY
Nature of the assay: TYK2 kinase domain capture-based ELISA kinase assay. The method, then: as §1
The kinase domain of humanTYK2 was amplified from A549 mRNA using the polymerase chain reaction with the following primers: […]
TYK2 PCR products were cloned into pBlueBacHis2A (Invitrogen) via the EcoRI site. The recombinant TYK2 baculovirus produced was prepared for transfected into Sf9 insect cells.
as §2, §3, §4

T3 sequence (P52333 822-1111 limits assumed): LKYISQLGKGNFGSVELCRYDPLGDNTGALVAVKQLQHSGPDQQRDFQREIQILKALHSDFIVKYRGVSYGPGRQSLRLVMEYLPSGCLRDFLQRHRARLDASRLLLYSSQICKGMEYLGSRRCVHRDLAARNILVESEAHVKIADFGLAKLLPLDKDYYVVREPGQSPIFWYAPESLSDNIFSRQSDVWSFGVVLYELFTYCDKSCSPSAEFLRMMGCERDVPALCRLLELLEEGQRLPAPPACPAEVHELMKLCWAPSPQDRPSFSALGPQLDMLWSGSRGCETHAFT
T1 sequence (P23458 875-1153 limits assumed): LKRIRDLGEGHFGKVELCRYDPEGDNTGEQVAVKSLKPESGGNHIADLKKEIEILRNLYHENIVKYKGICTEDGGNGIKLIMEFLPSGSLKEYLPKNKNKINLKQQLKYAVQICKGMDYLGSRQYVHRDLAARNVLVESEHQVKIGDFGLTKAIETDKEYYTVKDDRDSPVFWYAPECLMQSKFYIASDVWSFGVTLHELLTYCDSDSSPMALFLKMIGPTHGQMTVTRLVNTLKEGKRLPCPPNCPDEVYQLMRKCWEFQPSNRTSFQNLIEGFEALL

The term pIC50 denotes the IC50 on a negative log10 scale, so that one unit is a factor of ten. A low value points to a high IC50. For `c1ccc(Nc2nc(-c3cccnc3)cn3ccnc23)cc1`, the negative-log IC50 (pIC50) in assay [1] (Table 6), in assay [2] (Table 6), in assay [3] (Table 6) and in assay [4] (Table 6) was greater than 4.30 each time.

Take `O=C(O)CCc1ccc(-c2cn3ccnc3c(NCCc3ccncc3)n2)cc1`: the pIC50 in assay [1] (Table 6) is less than 4.30; in assay [2] (Table 6), less than 4.30; in assay [3] (Table 6), greater than 4.30; in assay [4] (Table 6) it was less than 4.30.

On to `CC(=O)c1ccc(-c2cn3ccnc3c(Nc3ccccc3)n2)s1`, for which the pIC50 in assay [1] (Table 6), in assay [2] (Table 6), in assay [3] (Table 6) and in assay [4] (Table 6) was greater than 4.30 each time.

For the compound `COc1cncc(-c2cccc(Nc3cccnc3)n2)c1` [CYT14607], the pIC50 in assay [1] (Table 3), in assay [2] (Table 3), in assay [3] (Table 3) and in assay [4] (Table 3) was greater than 4.30 each time.

As for `CCN(CCO)c1ccc(Nc2nc(-c3c(OC)cccc3OC)cn3ccnc23)cc1`, the pIC50 in assay [1] (Table 6) is greater than 4.30; in assay [2] (Table 6), greater than 4.30; in assay [3] (Table 6), less than 4.30; in assay [4] (Table 6) it was less than 4.30.

As to `COc1cc(-c2cncc(N[C@@H](C)c3ccccc3)n2)cc(OC)c1OC` [CYT20510], the pIC50 in assay [1] (Table 3), in assay [2] (Table 3), in assay [3] (Table 3) and in assay [4] (Table 3) was greater than 4.30 in each case.

With `c1ccc2c(-c3cn4ccnc4c(Nc4ccc5cn[nH]c5c4)n3)cccc2c1`, the pIC50 in assay [1] (Table 5), in assay [2] (Table 5), in assay [3] (Table 5) and in assay [4] (Table 5) was greater than 4.30 in each case.

Turning to `CC(=O)Nc1cccc(-c2cncc(NCc3cccc(Cl)c3)n2)c1` [CYT20310], the negative logarithm of the IC50 (pIC50) in assay [1] (Table 3), in assay [2] (Table 3), in assay [3] (Table 3) and in assay [4] (Table 3) was greater than 4.30 throughout.

`CC(=O)Nc1ccc(Nc2nc(-c3ccc4c(c3)OCO4)cn3ccnc23)cc1`: the pIC50 in assay [1] (Table 6), in assay [2] (Table 6), in assay [3] (Table 6) and in assay [4] (Table 6) was greater than 4.30 in each case.

Turning to `C[C@H](Nc1cncc(-c2cccc(CO)c2)n1)c1ccccc1` [CYT20504], the pIC50 in assay [1] (Table 3), in assay [2] (Table 3), in assay [3] (Table 3) and in assay [4] (Table 3) was greater than 4.30 throughout.

As to `COc1cc(-c2cncc(NCCO)n2)cc(OC)c1OC` [CYT28608], the negative logarithm of the IC50 (pIC50) in assay [1] (Table 3), in assay [2] (Table 3), in assay [3] (Table 3) and in assay [4] (Table 3) was greater than 4.30 in each case.

Take `CC(=O)Nc1ccc(Nc2nc(-c3ccc4ccccc4c3)cn3ccnc23)cc1`: the pIC50 in assay [1] (Table 6) is greater than 4.30; in assay [2] (Table 6), greater than 4.30; in assay [3] (Table 6), less than 4.30; in assay [4] (Table 6), greater than 4.30.

Consider `c1ccc(Nc2nc(-c3ccc4c(c3)OCO4)cn3ccnc23)cc1`, for which the pIC50 in assay [1] (Table 6) is greater than 4.30; in assay [2] (Table 6), greater than 4.30; in assay [3] (Table 6), less than 4.30; in assay [4] (Table 6), greater than 4.30.

Consider `COc1cncc(-c2cncc(NCc3cccs3)n2)c1` [CYT20303], for which the negative logarithm of the IC50 (pIC50) in assay [1] (Table 3), in assay [2] (Table 3), in assay [3] (Table 3) and in assay [4] (Table 3) was greater than 4.30 each time.

For `O=C(O)c1ccc(-c2cn3ccnc3c(N3CCN(c4ccncc4)CC3)n2)cc1`, the pIC50 in assay [1] (Table 6) was less than 4.30; in assay [2] (Table 6), greater than 4.30; in assay [3] (Table 6), less than 4.30; in assay [4] (Table 6) it was less than 4.30.

On to `COc1cc(-c2cncc(NCCc3ccncc3)n2)cc(OC)c1OC` [CYT21404], for which the pIC50 in assay [1] (Table 3), in assay [2] (Table 3), in assay [3] (Table 3) and in assay [4] (Table 3) was greater than 4.30 each time.

In the case of `NCc1cccc(-c2cn3ccnc3c(Nc3ccccc3)n2)c1`, the pIC50 was greater than 4.30 in assay [1] (Table 6), greater than 4.30 in assay [2] (Table 6), less than 4.30 in assay [3] (Table 6) and greater than 4.30 in assay [4] (Table 6).

In the case of `Oc1ccc(-c2cn3ccnc3c(N3CCOCC3)n2)cc1` [drawing 90], the pIC50 is less than 4.30 in assay [1] (Table 6), greater than 4.30 in assay [2] (Table 6), less than 4.30 in assay [3] (Table 6) and less than 4.30 in assay [4] (Table 6).

As to `COc1ccccc1-c1cn2ccnc2c(Nc2ccc(CCO)cc2)n1`, the pIC50 in assay [1] (Table 6) was greater than 4.30; in assay [2] (Table 6), greater than 4.30; in assay [3] (Table 6), less than 4.30; in assay [4] (Table 6), greater than 4.30.

Consider `COc1cccc(-c2cccc(N3CCN(C)CC3)n2)c1` [CYT13809], for which the pIC50 in assay [1] (Table 3), in assay [2] (Table 3), in assay [3] (Table 3) and in assay [4] (Table 3) was greater than 4.30 in each case.

Regarding `Fc1ccc(CNc2cncc(-c3cccnc3)n2)cc1` [CYT20307], the pIC50 in assay [1] (Table 3), in assay [2] (Table 3), in assay [3] (Table 3) and in assay [4] (Table 3) was greater than 4.30 in each case.

As to `CN(C)C(=O)COc1cccc(Nc2nc(-c3ccccc3)cn3ccnc23)c1`, the negative logarithm of the IC50 (pIC50) in assay [1] (Table 6) was greater than 4.30; in assay [2] (Table 6), greater than 4.30; in assay [3] (Table 6), less than 4.30; in assay [4] (Table 6), greater than 4.30.

Consider `CCN(CCO)c1ccc(Nc2nc(-c3ccccc3CO)cn3ccnc23)cc1` [drawing 96], for which the pIC50 in assay [1] (Table 6) is greater than 4.30; in assay [2] (Table 6), greater than 4.30; in assay [3] (Table 6) it was less than 4.30; in assay [4] (Table 6) it was greater than 4.30.

As for `OCc1ccccc1-c1cncc(NCc2ccccc2)n1` [CYT25210], the pIC50 in assay [1] (Table 3), in assay [2] (Table 3), in assay [3] (Table 3) and in assay [4] (Table 3) was greater than 4.30 each time.

As for `COc1cccc(OC)c1-c1cn2ccnc2c(Nc2ccc(N3CCOCC3)cc2)n1`, the pIC50 in assay [1] (Table 5), in assay [2] (Table 5), in assay [3] (Table 5) and in assay [4] (Table 5) was greater than 4.30 in each case.

In the case of `Cc1ccc(S(=O)(=O)Nc2ccc(Nc3nc(-c4ccccc4)cn4ccnc34)cc2)cc1`, the negative logarithm of the IC50 (pIC50) in assay [1] (Table 5), in assay [2] (Table 5), in assay [3] (Table 5) and in assay [4] (Table 5) was greater than 4.30 throughout.

For `CCNc1nc(-c2ccc(O)c(OC)c2)cn2ccnc12`, the pIC50 in assay [1] (Table 6) was greater than 4.30; in assay [2] (Table 6), greater than 4.30; in assay [3] (Table 6), greater than 4.30; in assay [4] (Table 6), less than 4.30.

Turning to `CCN(CCO)c1ccc(Nc2nc(-c3ccccc3)cn3ccnc23)cc1`, the pIC50 in assay [1] (Table 6), in assay [2] (Table 6), in assay [3] (Table 6) and in assay [4] (Table 6) was greater than 4.30 throughout.

For `Oc1ccc(-c2cncc(N3CCN(Cc4ccccn4)CC3)n2)cc1` [CYT32602], the pIC50 in assay [1] (Table 3), in assay [2] (Table 3), in assay [3] (Table 3) and in assay [4] (Table 3) was greater than 4.30 in each case.

For the compound `CC(=O)Nc1cccc(-c2cn3ccnc3c(N[C@@H](CO)C(C)C)n2)c1`, the pIC50 in assay [1] (Table 5), in assay [2] (Table 5), in assay [3] (Table 5) and in assay [4] (Table 5) was greater than 4.30 in each case.

On to `CN1CCCN(c2nc(-c3cccc4ccccc34)cn3ccnc23)CC1`, for which the pIC50 is greater than 4.30 in assay [1] (Table 6), less than 4.30 in assay [2] (Table 6), less than 4.30 in assay [3] (Table 6) and less than 4.30 in assay [4] (Table 6).

On to `c1cncc(Nc2cccc(-c3ccncc3)n2)c1` [CYT14804], for which the pIC50 in assay [1] (Table 3), in assay [2] (Table 3), in assay [3] (Table 3) and in assay [4] (Table 3) was greater than 4.30 in each case.
